Reference: article PMC7956155, “Design and Evaluation of Peptide Dual-Agonists of GLP-1 and NPY2 Receptors for Glucoregulation and Weight Loss with Mitigated Nausea and Emesis” (Journal of Medicinal Chemistry, 2021)
pEC50, pIC50, pKd: −log10 of the molar value. Square brackets hold non-standard residues; d marks the D form. Ends that are not written are not given here.

What was measured:
human GLP-1R [1] = target: T1, human GLP-1R (Homo sapiens, UniProt P43220); test: Taglite fluorescent competitive binding assay at GLP-1R against GLP-1red; settings: CHO-K1 cells, tracer GLP-1red 4 nM, duplicate independent runs
T1 sequence (P43220 24-463): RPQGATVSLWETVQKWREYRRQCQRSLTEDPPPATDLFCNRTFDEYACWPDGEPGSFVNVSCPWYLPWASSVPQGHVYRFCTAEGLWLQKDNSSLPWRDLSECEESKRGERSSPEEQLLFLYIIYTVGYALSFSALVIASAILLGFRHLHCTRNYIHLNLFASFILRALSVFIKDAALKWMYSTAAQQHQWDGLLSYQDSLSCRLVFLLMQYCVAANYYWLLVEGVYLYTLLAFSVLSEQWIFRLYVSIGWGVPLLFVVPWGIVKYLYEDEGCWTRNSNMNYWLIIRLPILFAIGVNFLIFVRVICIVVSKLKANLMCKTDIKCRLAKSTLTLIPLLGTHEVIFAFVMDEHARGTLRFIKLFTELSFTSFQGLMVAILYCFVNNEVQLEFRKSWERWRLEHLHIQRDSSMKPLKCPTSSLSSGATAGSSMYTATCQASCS

[2] = Pooled rat liver microsomal stability assay; type: in vitro ADME; settings: pooled male Sprague–Dawley rat liver microsomes 1 mg/mL, 30 μM peptide, 1 mM NADPH, pH 7.4, 37 °C, over 120 min, HPLC UV 206 nm, n = 3; standard error in brackets
Protocol: Pooled liver microsomes from a male Sprague–Dawley rat were purchased from Sigma-Aldrich. Microsomal incubations were performed in triplicate as independent data sets in 3 mM MgCl2, 25 mM KH2PO4 buffer at pH 7.4. Assays were performed at 500 μL total volume with 30 μM peptide, 1 mM NADPH, and 1 mg/mL pooled liver microsomes. Kanamycin at 200 μM was used as an internal standard. Pooled rat liver microsome assay showing data collected by HPLC. […] Assays were conducted at 37 °C with gentle rocking. […] Data were fit utilizing eqs 3–6.

human GLP-1R [3] = target: T1, human GLP-1R; test: cAMP FRET reporter (H188) agonism assay at human GLP-1R in HEK293 cells; type: cell-based
Protocol: HEK293 cells stably expressing the human GLP-1R and virally transduced with H188 for FRET assays were obtained from Novo Nordisk A/S (Bagsvaerd, Denmark).[67] […] Post-transfection, cells were incubated for 48 h in fresh culture media. For real-time kinetic assays of FRET, cells were harvested and resuspended in 21 mL of SES buffer and plated at 196 μL per well. […] FRET assays and data analysis were performed using a FlexStation 3 microplate reader as described.
Cells were then transduced for 16 h with H188 virus at a density of 60 000 cells/well under conditions in which the multiplicity of infection was equivalent to 25 viral particles per cell. The culture media was removed and replaced by 200 μL/well of a standard extracellular saline (SES) solution supplemented with 11 mM glucose and 0.1% BSA. […] Real-time kinetic assays of FRET were performed using a FlexStation 3 microplate reader equipped with excitation and emission light monochromators (Molecular Devices, Sunnyvale, CA). […] The emission intensities were the averages of 15 excitation flashes for each time point per well. […] Prism 8.1 was also used for nonlinear regression analysis to quantify dose–response relationships.

human Y2-R = target: T2, human Y2-R (Homo sapiens, UniProt P49146); test: cAMP FRET reporter (H188) assay at Y2-R: counteraction of adenosine-stimulated cAMP in HEK293 cells; type: cell-based; settings: HEK cells with H188 biosensor, recombinant human Y2-R and endogenous A2b receptors; 2 μM adenosine; 95% CI in brackets, at least triplicate; read-out: Y2-R agonist action (IC50), decrease of adenosine-raised cAMP
T2 sequence (P49146 1-381): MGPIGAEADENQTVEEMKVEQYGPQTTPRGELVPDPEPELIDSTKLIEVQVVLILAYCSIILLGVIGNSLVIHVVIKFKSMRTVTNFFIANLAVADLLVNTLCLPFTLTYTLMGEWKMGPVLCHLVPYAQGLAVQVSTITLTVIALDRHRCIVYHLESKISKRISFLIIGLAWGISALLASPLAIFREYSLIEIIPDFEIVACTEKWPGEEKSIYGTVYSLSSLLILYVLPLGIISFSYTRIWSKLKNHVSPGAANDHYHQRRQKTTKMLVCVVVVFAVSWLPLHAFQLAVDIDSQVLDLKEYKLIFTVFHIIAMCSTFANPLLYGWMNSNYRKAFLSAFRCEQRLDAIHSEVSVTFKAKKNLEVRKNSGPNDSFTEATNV

rat GlucR = rat GlucR (Rattus norvegicus, UniProt P30082); test: cAMP FRET reporter (H188) agonism assay at GlucR in HEK293 cells; type: cell-based; settings: HEK293 cells stably expressing GlucR, H188 FRET biosensor; duplicate independent experiments; read-out: GlucR agonist action (EC50), increase of cytosolic cAMP
rat GlucR, sequence (P30082 27-485): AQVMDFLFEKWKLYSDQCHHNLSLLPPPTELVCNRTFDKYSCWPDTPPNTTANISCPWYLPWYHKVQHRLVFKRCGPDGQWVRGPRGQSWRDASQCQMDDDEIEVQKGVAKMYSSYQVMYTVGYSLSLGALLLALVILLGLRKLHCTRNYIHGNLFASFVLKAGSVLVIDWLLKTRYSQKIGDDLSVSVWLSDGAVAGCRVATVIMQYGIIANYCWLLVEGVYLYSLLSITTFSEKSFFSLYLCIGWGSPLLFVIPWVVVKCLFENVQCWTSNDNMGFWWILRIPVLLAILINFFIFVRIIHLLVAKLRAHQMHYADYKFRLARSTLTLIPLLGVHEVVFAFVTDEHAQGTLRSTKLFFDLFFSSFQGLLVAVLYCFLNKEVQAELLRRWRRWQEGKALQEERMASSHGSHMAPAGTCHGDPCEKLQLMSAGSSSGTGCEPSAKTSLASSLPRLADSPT
Protocol: Plasmid encoding human Y2-R (I.D. NPYR20TN00) in pcDNA3.1 and human Y1-R (NPYR10TN00) were obtained from the cDNA Resource Center (Bloomsburg, PA). HEK293 cells stably expressing the rat GlucR were obtained from C. […] Adenovirus for transduction of HEK293 cells was generated by a commercial vendor (Vira-Quest, North Liberty, IA) using the shuttle vector pVQAd CMV K-NpA and the H188 plasmid provided by Prof. Kees Jalink.[74]
These assays were conducted as fully described by us previously.[70],[71] Briefly, HEK293 cells transiently or stably expressing recombinant GPCRs were plated at 80% confluency on 96-well clear-bottom assay plates (Costar 3904, Corning, NY). […] Real-time kinetic assays of FRET were performed using a FlexStation 3 microplate reader equipped with excitation and emission light monochromators (Molecular Devices, Sunnyvale, CA). Excitation light was delivered at 435/9 nm (455 nm cutoff), and emitted light was detected at 485 ± 15 nm (cyan fluorescent protein) or 535 ± 15 nm (yellow fluorescent protein).[68],[75] […] The 485/535 emission ratio was calculated for each well, and the mean ± SD values for 12 wells were averaged. […] Prism 8.1 was also used for nonlinear regression analysis to quantify dose–response relationships.

human Y1-R = target: T3, human Y1-R (Homo sapiens, UniProt P25929); test: cAMP FRET reporter (H188) assay at Y1-R: counteraction of adenosine-stimulated cAMP in HEK293 cells; type: cell-based; settings: HEK cells with H188 biosensor, recombinant human Y1-R and endogenous A2b receptors; 2 μM adenosine; 95% CI in brackets, at least triplicate; read-out: Y1-R agonist action (IC50), decrease of adenosine-raised cAMP
T3 sequence (P25929 1-384): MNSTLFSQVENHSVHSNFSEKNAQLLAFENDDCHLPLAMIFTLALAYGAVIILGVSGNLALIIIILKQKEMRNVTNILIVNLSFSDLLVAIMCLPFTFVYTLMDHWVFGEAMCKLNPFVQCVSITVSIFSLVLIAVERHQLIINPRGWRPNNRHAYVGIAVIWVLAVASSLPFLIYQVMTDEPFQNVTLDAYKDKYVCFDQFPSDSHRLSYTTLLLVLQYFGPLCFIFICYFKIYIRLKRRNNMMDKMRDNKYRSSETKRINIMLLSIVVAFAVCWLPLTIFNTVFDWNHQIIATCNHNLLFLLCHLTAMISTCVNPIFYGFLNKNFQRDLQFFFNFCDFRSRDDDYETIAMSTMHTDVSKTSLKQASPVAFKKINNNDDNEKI

rat GLP-1R = target: T4, rat GLP-1R (Rattus norvegicus, UniProt P32301); type: cell-based
T4 sequence (P32301 22-463): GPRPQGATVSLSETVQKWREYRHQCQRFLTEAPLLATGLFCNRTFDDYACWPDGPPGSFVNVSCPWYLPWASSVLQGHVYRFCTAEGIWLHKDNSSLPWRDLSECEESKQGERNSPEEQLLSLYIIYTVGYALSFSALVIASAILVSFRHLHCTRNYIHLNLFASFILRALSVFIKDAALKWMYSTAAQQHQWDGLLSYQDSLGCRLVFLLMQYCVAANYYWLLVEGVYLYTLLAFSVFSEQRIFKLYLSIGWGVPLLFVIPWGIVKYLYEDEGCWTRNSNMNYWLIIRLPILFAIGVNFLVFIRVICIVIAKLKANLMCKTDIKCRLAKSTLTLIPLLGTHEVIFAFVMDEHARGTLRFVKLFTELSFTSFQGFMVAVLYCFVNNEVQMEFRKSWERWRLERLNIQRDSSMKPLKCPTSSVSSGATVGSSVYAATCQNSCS

Row | Molecule | hill (competition binding at GLP-1R) (human GLP-1R [1]) | pIC50 (human GLP-1R [1]; nine concentrations 1 pM to 1 μM, range in brackets, read-out: IC50, competition binding at GLP-1R using red fluorescent GLP-1) | CLlnt, intrinsic clearance in rat liver microsomes [2] | pEC50 (human GLP-1R [3]; HEK cells expressing human GLP-1R and cAMP biosensor H188, FRET, SES buffer pH 7.4, nonlinear regression, 95% CI in brackets, at least triplicate independent data sets, read-out: GLP-1R agonist action (EC50), increase of cytosolic cAMP) | pIC50 (human Y2-R) | pEC50 (rat GlucR) | pIC50 (human Y1-R) | pKd (rat GLP-1R) | increased GLP-1R potency over GEP44 (human GLP-1R [3]; comparison of EC50 values)
1 | CC[C@H](C)[C@H](NC(=O)[C@H](Cc1ccccc1)NC(=O)[C@H](CC(C)C)NC(=O)[C@H](CCCNC(=N)N)NC(=O)[C@@H](NC(=O)[C@H](C)NC(=O)[C@H](CCC(=O)O)NC(=O)[C@H](CCC(=O)O)NC(=O)[C@H](CCC(=O)O)NC(=O)[C@H](CCSC)NC(=O)[C@H](CCC(N)=O)NC(=O)[C@H](CCCCN=[N+]=[N-])NC(=O)[C@H](CO)NC(=O)[C@H](CC(C)C)NC(=O)[C@H](CC(=O)O)NC(=O)[C@H](CO)NC(=O)[C@@H](NC(=O)[C@H](Cc1ccccc1)NC(=O)[C@@H](NC(=O)CNC(=O)[C@H](CCC(N)=O)NC(=O)[C@@H](CO)NC(=O)[C@@H](N)Cc1c[nH]cn1)[C@@H](C)O)[C@@H](C)O)C(C)C)C(=O)N[C@@H](CCC(=O)O)C(=O)N[C@@H](Cc1c[nH]c2ccccc12)C(=O)N[C@@H](CC(C)C)C(=O)N[C@@H](CCCCN)C(=O)N[C@@H](CC(N)=O)C(=O)N[C@@H](CCCNC(=N)N)C(=O)N[C@@H](Cc1c[nH]cn1)C(=O)N[C@@H](Cc1ccc(O)cc1)C(=O)N[C@@H](CC(C)C)C(=O)N[C@@H](CC(N)=O)C(=O)N[C@@H](CC(C)C)C(=O)N[C@H](C(=O)N[C@H](C(=O)N[C@@H](CCCNC(=N)N)C(=O)N[C@@H](CCC(N)=O)C(=O)N[C@@H](CCCNC(=N)N)C(=O)N[C@@H](Cc1ccc(O)cc1)C(N)=O)[C@@H](C)O)C(C)C [EP40] | –0.96 |  |  |  |  |  |  |  | 
2 | CC[C@H](C)[C@H](NC(=O)[C@H](Cc1ccccc1)NC(=O)[C@H](CCC(=O)O)NC(=O)[C@H](CCCNC(=N)N)NC(=O)[C@@H](NC(=O)[C@H](C)NC(=O)[C@H](CCC(=O)O)NC(=O)[C@H](CCC(=O)O)NC(=O)[C@H](CCC(=O)O)NC(=O)[C@H](CC(C)C)NC(=O)[C@H](Cc1ccc(O)cc1)NC(=O)[C@H](CCCCN=[N+]=[N-])NC(=O)[C@H](CO)NC(=O)[C@H](CC(C)C)NC(=O)[C@H](CC(=O)O)NC(=O)[C@H](CO)NC(=O)[C@@H](NC(=O)[C@H](Cc1ccccc1)NC(=O)[C@@H](NC(=O)CNC(=O)[C@H](CCC(N)=O)NC(=O)[C@@H](CO)NC(=O)[C@@H](N)Cc1c[nH]cn1)[C@@H](C)O)[C@@H](C)O)C(C)C)C(=O)N[C@@H](C)C(=O)N[C@@H](Cc1c[nH]c2ccccc12)C(=O)N[C@@H](CC(C)C)C(=O)N[C@@H](CCCCN)C(=O)N[C@@H](CC(N)=O)C(=O)NCC(=O)NCC(=O)N1CCC[C@H]1C(=O)N[C@@H](CO)C(=O)N[C@@H](CCCNC(=N)N)C(=O)N[C@@H](Cc1c[nH]cn1)C(=O)N[C@@H](Cc1ccc(O)cc1)C(=O)N[C@@H](CC(C)C)C(=O)N[C@@H](CC(N)=O)C(=O)N[C@@H](CC(C)C)C(=O)N[C@H](C(=O)N[C@H](C(=O)N[C@@H](CCCNC(=N)N)C(=O)N[C@@H](CCC(N)=O)C(=O)N[C@@H](CCCNC(=N)N)C(=O)N[C@@H](Cc1ccc(O)cc1)C(N)=O)[C@@H](C)O)C(C)C [GEP44] |  | 6.95 | 32.5 (1.18) μL/min/mg peptide | 9.48 | 8.00 | < 5.52 | 7.57 |  | 
3 | H[dS]QGTFTSDLSKQMEEEAVRLFIEWLKNGGPSRHYLNLVTRQRY-NH2 [EP44] | –1.56 |  |  |  |  |  |  | 9.92 | ~30%
